Laboratory results published in US8071317B2, “Methods for detection of hydrophobic drugs” (Siemens Healthcare Diagnostics Inc., priority 2007, dated 2011).

Tested on: anti-sirolimus antibody
Experiment: Sirolimus ACMIA immunoassay: metabolite cross-reactivity in whole blood
Format: binding
Description: Testing was done using the DIMENSION® RxL analyzer, available from Dade Behring Inc., Newark Del. The instrument was employed using ACMIA immunoassay technology. The ACMIA assay method is disclosed in U.S. Pat. Nos. 7,186,518, 5,147,529, 5,128,103, 5,158,871, 4,661,408, 5,151,348, 5,302,532, 5,422,284, 5,447,870, 5,434,051, the disclosures of which are incorporated herein in their entirety). In the embodiment of the ACMIA method used herein and discussed in more detail below, competition between sirolimus analog on chrome particles and sirolimus (SIRO) in patient samples for antibody for sirolimus conjugated to an enzyme (conjugate) was utilized to determine the amount of sirolimus in the patient samples. Conjugate that binds to the sirolimus analog on chrome particles was removed by magnetic separation. The enzymatic activity from conjugate remaining in the supernatant is measured and is directly proportional to the amount of sirolimus in the patient sample. In the ACMIA assay format employed, the enzymatic activity observed when testing a sample containing no sirolimus was indicative of the amount of enzymatic activity that was not bound to active antibody (i.e., cannot bind sirolimus on chrome particles). The enzymatic activity observed when no chrome particle is present is indicative of the total amount of enzymatic activity in the conjugate. These values can be used to estimate the percent of enzymatic activity bound to active antibody.
Monoclonal anti-sirolimus antibody (Wyeth Pharmaceuticals, Cambridge Mass.) was conjugated to β-galactosidase using a standard heterobifunctional SMCC (succinimidyl trans-4-(N-maleimidylmethyl)cyclohexane-1-carboxylate) linker according to known techniques. The antibody conjugate solution contained approximately 7.5 μg/mL anti-sirolimus antibody-β-galactosidase conjugate, 30 mg/mL protease free bovine serum albumin, 0.126 mg/mL MgCl2, 0.03 mL/mL of Ethylene glycol, 35.14 mg/mL PIPES 1.5 sodium salt, 50 mg/mL NaCl and beta-gal mutein (inactivated beta-galactosidase), pH 6.5.
Sirolimus chrome particles (immunoassay solid phase) were prepared by conjugating sirolimus-C26- or -C32-CMO conjugate to DA10-Dexal-Chromium Dioxide particles using N-hydroxysuccinimide (NHS) ester and 1-ethyl-3-(3-dimethylaminopropyl)carbodiimide (EDAC) chemistry. See, for example, U.S. Pat. No. 6,231,982, the relevant disclosure of which is incorporated herein by reference. The sirolimus chrome particles are then made into sirolimus chrome particle tablets. Each sirolimus tablet contains approximately 2 mg sirolimus chrome particle slurry, 30.4 mg trehalose dihydrate and 3.6 mg CARBOWAX® 100 μm.
The principle and operation of the ACMIA assay for sirolimus were as follows: pretreatment reagent without FKE or with FKE containing organic solvent as the selective solubility agent was added to a reaction vessel on the DIMENSION® RxL analyzer. Next, 18 μL of whole blood containing sirolimus or its metabolites was added. The whole blood was sampled from a standard cup by first mixing the blood with the ultrasonic sample probe. The mixing of whole blood sample with the pretreatment solution ensured the hemolysis of the whole blood and the displacement of the protein bound sirolimus molecules from their binding sites when the tacrolimus carbamate molecules were present. Anti-sirolimus antibody-β-galactosidase conjugate (50 μL) was added next and was allowed to react with sirolimus in the sample. The chrome particles with immobilized sirolimus-CMO-DA10-Dexal were added (50 μL) and were allowed to bind the un-bound conjugate. […] The sirolimus-bound conjugate was detected by transferring the supernatant from the reaction vessel to a photometric cuvette and measuring the enzymatic rate of the conjugate in the presence of chlorophenol red-β-D-galactopyranoside (CPRG). The rate was measured bichromatically at 577 and 700 nm. […]

[1] = PT with 15 μg/mL FKE & 15% DMSO

Row | Molecule | sirolimus metabolite cross-reactivity [1] | sirolimus metabolite cross-reactivity (PT with 15 μg/mL FKE, no DMSO) | sirolimus metabolite cross-reactivity (PT with Neither FKE Nor DMSO) | % Cross-Reactivity (Control: no organic solvent in pretreatment reagent, recovery as percent of parent sirolimus) | % Cross-Reactivity (DMSO 10% in pretreatment reagent, 2.3% in reaction mixture, 15 μg/mL FK506 ester) | % Cross-Reactivity (DMSO 15% in pretreatment reagent, 3.4% in reaction mixture, 15 μg/mL FK506 ester) | % Cross-Reactivity (Methoxypropanol 10% in pretreatment reagent, 2.3% in reaction mixture, 15 μg/mL FK506 ester)
1 | 11-hydroxy sirolimus [11-hydroxy sirolimus (isomer of the above)] | 9% | 34% | 114% | – | – | – | –
2 | 27,39-O-didesmethyl (or 32,41-O-didesmethyl) sirolimus [27,39 Didesmethyl sirolimus] | 88% | 165% | 569% | 180% | 100% | 88% | 92%
3 | 11-hydroxy sirolimus | 35% | 78% | 315% | – | – | – | –
4 | CO[C@@H]1C[C@H](C[C@@H](C)[C@@H]2CC(=O)[C@H](C)/C=C(\C)[C@@H](O)[C@@H](OC)C(=O)[C@H](C)C[C@H](C)/C=C/C=C/C=C(\C)[C@@H](O)C[C@@H]3CC[C@@H](C)[C@@](O)(O3)C(=O)C(=O)N3CCCC[C@H]3C(=O)O2)CC[C@H]1O [7-O-demethyl sirolimus] | −3% | 7% | 6% | – | – | – | –
5 | (N-oxide)-hydroxy sirolimus | 13% | 49% | 152% | – | – | – | –
6 | 32-O-desmethyl sirolimus | −3% | 8% | 34% | – | – | – | –
7 | 41-O-demethyl sirolimus | 40% | 39% | 48% | – | – | – | –
